Tested on: HOP-62 multicell spheroids with HUVEC/MSC, viability
Assay: Anticancer human tumor HOP-62 cell line growth inhibition [KRAS2];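 also: viability read after a week of compound exposure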;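 as to viability, T/C: 100% = DMSO vehicle-treated spheroids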
Conditions: for IC50: curve of first compound; for viability, T/C: stronger effect = lower value
Excerpt: Multicellular complex tumor spheroid response to RAS pathway inhibitors in combination with a targeted agents in patient-derived cell lines with oncogenic KRAS variants from multiple cancer types
A high-throughput screen of multi-cell type tumor spheroids was designed to identify active combinations of targeted small molecules and KRAS pathway inhibitors. Complex spheroids include a stromal component modeled by human endothelial cells (HUVEC) and fibroblasts modeled by human mesenchymal stem cells (MSCs). The concentration ranges selected for each drug and investigational agent were based upon clinically achievable concentrations if the clinical Cmax of the agent was known.
Compounds. The drugs and investigational agents: BI-3406 (NSC825286), BAY-293 (NSC824723), batoprotafib (TNO155; NSC825523), sotorasib (AMG 510; NSC818433), MRTX1257 (NSC819558), elimusertib (BAY 1895344; NSC800525), molibresib (GSK525762; NSC774829), temuterkib (LY3214996; NSC803410), venetoclax (NSC766270), alisertib (NSC759677), olaparib (NSC753686), talazoparib (NSC767125), erdafitinib (NSC781556), ipatasertib (NSC767898), cabozantinib (NSC761068), nintedanib (NSC756659), abemaciclib (NSC768073), docetaxel (NSC628503), trametinib (NSC758246), and sapanisertib (NSC764658) were obtained from the National Cancer Institute (NCI) Developmental Therapeutics Program Chemical Repository. The FDA-approved anticancer drug set is available from the Developmental Therapeutics Program. […] The stock solutions were prepared in dimethyl sulfoxide (DMSO, Sigma-Aldrich, St. Louis, MO, cat. D2650) at 800-fold the tested concentration and stored at -70 degrees C prior to their use. All drugs and investigational agents were tested over a range starting from a high concentration at or near the clinical Cmax and decreasing in half-log increments. If the clinical Cmax for an agent had not been determined, the highest concentration tested was 10 microM.
Cell Culture. All cells were maintained in an incubator at 37 degrees C and 5% CO2 with 95% humidity. The PDC lines were cultured according to standard operating procedures established by the NCI PDMR (https://pdmr.cancer.gov/sops/default.htm). Briefly, all PDCs were thawed and cultured in Matrigel-coated flasks prepared with a working solution of 1X Ham's F-12 nutrient mix, without supplementation (Invitrogen, Waltham, MA, cat. 11765054), 100 U/mL penicillin-streptomycin (Invitrogen, cat. 15140122), and 2.5% Matrigel (Corning Inc., Corning, NY, cat. 354248) for the first three passages. All PDCs were cultured in complete DMEM/F-12 media containing advanced DMEM/F-12 (Invitrogen, cat. 12634028), 4.9% defined fetal bovine serum, heat inactivated (HyClone Laboratories Inc., Logan, UT, cat. SH30070.03HI), 389 ng/mL hydrocortisone (Sigma-Aldrich, cat. H4001), 9.7 ng/mL human EGF recombinant protein (Invitrogen, cat. PHG0313), 23.4 microg/mL adenine (Sigma-Aldrich, cat. A2786), 97.3 U/mL penicillin-streptomycin (Invitrogen, cat. 15140122), 1.9 mM L-glutamine (Invitrogen, cat. 25030081), and 9.7 microM Y-27632 dihydrochloride (Tocris Bioscience, Bristol, United Kingdom, cat. 1254). The PDCs were cultured in complete DMEM/F12 media without 9.7 microM Y-27632 dihydrochloride for at least two passages prior to the screen. The established cell line HOP-62 was cultured in RPMI 1640 medium, HEPES (Invitrogen, cat. 22400105) with 10% defined fetal bovine serum (HyClone Laboratories Inc., cat. SH30070.03) and 2 mM L-glutamine (Invitrogen, cat. 25030081). The pooled donor HUVEC were cultured in endothelial cell growth medium 2 (PromoCell, Heidelberg, Germany, cat. C-22011) and the hMSC were cultured in mesenchymal stem cell growth medium 2 (PromoCell, cat. C-28009). For all experiments, HUVEC and hMSC were used at passages </=5, while the malignant cell lines were used at passages </=15. […]

[1] = second compound 0.1 µM, first compound 0.0316 µM
[2] = second compound 0.1 µM, first compound 0.1 µM
[3] = second compound 0.1 µM, first compound 0.316 µM
[4] = second compound 0.1 µM, first compound 1 µM
[5] = second compound 0.1 µM, first compound 3.16 µM
[6] = second compound 0.1 µM, first compound 10 µM
[7] = second compound 0.316 µM, first compound 0.0316 µM
[8] = second compound 0.316 µM, first compound 0.1 µM
[9] = second compound 0.316 µM, first compound 0.316 µM
[10] = second compound 0.316 µM, first compound 1 µM
[11] = second compound 0.316 µM, first compound 3.16 µM
[12] = second compound 0.316 µM, first compound 10 µM
[13] = second compound 1 µM, first compound 0.0316 µM
[14] = second compound 1 µM, first compound 0.1 µM
[15] = second compound 1 µM, first compound 0.316 µM
[16] = second compound 1 µM, first compound 1 µM
[17] = second compound 1 µM, first compound 3.16 µM
[18] = second compound 1 µM, first compound 10 µM
[19] = second compound 3.16 µM, first compound 0.0316 µM
[20] = second compound 3.16 µM, first compound 0.1 µM
[21] = second compound 3.16 µM, first compound 0.316 µM
[22] = second compound 3.16 µM, first compound 1 µM
[23] = second compound 3.16 µM, first compound 3.16 µM
[24] = second compound 3.16 µM, first compound 10 µM
[25] = second compound 10 µM, first compound 0.0316 µM
[26] = second compound 10 µM, first compound 0.1 µM
[27] = second compound 10 µM, first compound 0.316 µM
[28] = second compound 10 µM, first compound 1 µM
[29] = second compound 10 µM, first compound 3.16 µM
[30] = second compound 10 µM, first compound 10 µM

**Q.** With COc1cc(Nc2ncc3c(n2)-c2ccc(Cl)cc2C(c2c(F)cccc2OC)=NC3)ccc1C(=O)O + C=CC(=O)N1CCN(c2nc(=O)n(-c3c(C)ccnc3C(C)C)c3nc(-c4c(O)cccc4F)c(F)cc23)C(C)C1 as the compound, how does the IC50 (second compound 0.1 µM) read?
**A.** The IC50 was less than 0.0316 µM.

**Q.** What about the IC50 (second compound 0.316 µM) of the same compound?
**A.** The IC50 was less than 0.0316 µM.

**Q.** And the IC50 (second compound 1 µM)?
**A.** Its IC50 is less than 0.0316 µM.

**Q.** What about the IC50 (second compound 3.16 µM) of the same compound?
**A.** The IC50 was less than 0.0316 µM.

**Q.** And the IC50 (second compound 10 µM)?
**A.** Its IC50 is less than 0.0316 µM.

**Q.** And the viability, T/C [1]?
**A.** Its viability, T/C is 35.3%.

**Q.** What about the viability, T/C [2] of the same compound?
**A.** Its viability, T/C is 29.2%.

**Q.** What about the viability, T/C [3] of the same compound?
**A.** The viability, T/C was 23.2%.

**Q.** What about the viability, T/C [4] of the same compound?
**A.** Its viability, T/C is 23.4%.

**Q.** What about the viability, T/C [5] of the same compound?
**A.** The viability, T/C was 23.3%.

**Q.** And the viability, T/C [6]?
**A.** Its viability, T/C is 16.6%.

**Q.** And the viability, T/C [7]?
**A.** Its viability, T/C is 42.6%.

**Q.** And the viability, T/C [8]?
**A.** The viability, T/C was 31.5%.

**Q.** What about the viability, T/C [9] of the same compound?
**A.** Its viability, T/C is 31.8%.

**Q.** What about the viability, T/C [10] of the same compound?
**A.** Its viability, T/C is 32.6%.

**Q.** What about the viability, T/C [11] of the same compound?
**A.** The viability, T/C was 21.8%.

**Q.** What about the viability, T/C [12] of the same compound?
**A.** Its viability, T/C is 20%.

**Q.** And the viability, T/C [13]?
**A.** Its viability, T/C is 27.6%.

**Q.** And the viability, T/C [14]?
**A.** The viability, T/C was 38.6%.

**Q.** And the viability, T/C [15]?
**A.** Its viability, T/C is 35.4%.

**Q.** What about the viability, T/C [16] of the same compound?
**A.** Its viability, T/C is 31.6%.

**Q.** What about the viability, T/C [17] of the same compound?
**A.** The viability, T/C was 27.7%.

**Q.** And the viability, T/C [18]?
**A.** Its viability, T/C is 21.9%.

**Q.** What about the viability, T/C [19] of the same compound?
**A.** The viability, T/C was 37.6%.

**Q.** And the viability, T/C [20]?
**A.** The viability, T/C was 36.7%.

**Q.** What about the viability, T/C [21] of the same compound?
**A.** The viability, T/C was 34%.

**Q.** What about the viability, T/C [22] of the same compound?
**A.** Its viability, T/C is 33.7%.

**Q.** What about the viability, T/C [23] of the same compound?
**A.** Its viability, T/C is 28.7%.

**Q.** What about the viability, T/C [24] of the same compound?
**A.** The viability, T/C was 22%.

**Q.** And the viability, T/C [25]?
**A.** Its viability, T/C is 39.2%.

**Q.** And the viability, T/C [26]?
**A.** The viability, T/C was 32.3%.

**Q.** What about the viability, T/C [27] of the same compound?
**A.** The viability, T/C was 31.9%.

**Q.** What about the viability, T/C [28] of the same compound?
**A.** Its viability, T/C is 33%.

**Q.** What about the viability, T/C [29] of the same compound?
**A.** Its viability, T/C is 33.4%.

**Q.** What about the viability, T/C [30] of the same compound?
**A.** The viability, T/C was 25.5%.

**Q.** For COc1cc2nccc(Oc3ccc(NC(=O)C4(C(=O)Nc5ccc(F)cc5)CC4)cc3)c2cc1OC + C=CC(=O)N1CCN(c2nc(=O)n(-c3c(C)ccnc3C(C)C)c3nc(-c4c(O)cccc4F)c(F)cc23)C(C)C1, which IC50 (second compound 0.1 µM) is on record?
**A.** The IC50 was 1.71 µM.

**Q.** What about the IC50 (second compound 0.316 µM) of the same compound?
**A.** Its IC50 is 1.46 µM.

**Q.** What about the IC50 (second compound 1 µM) of the same compound?
**A.** The IC50 was 2.21 µM.

**Q.** What about the IC50 (second compound 3.16 µM) of the same compound?
**A.** The IC50 was 1.47 µM.

**Q.** And the IC50 (second compound 10 µM)?
**A.** The IC50 was less than 0.0316 µM.

**Q.** What about the viability, T/C [1] of the same compound?
**A.** The viability, T/C was 50.1%.

**Q.** What about the viability, T/C [2] of the same compound?
**A.** Its viability, T/C is 52.9%.

**Q.** And the viability, T/C [3]?
**A.** Its viability, T/C is 53.9%.

**Q.** And the viability, T/C [4]?
**A.** The viability, T/C was 73.4%.

**Q.** What about the viability, T/C [5] of the same compound?
**A.** The viability, T/C was 41.3%.

**Q.** What about the viability, T/C [6] of the same compound?
**A.** Its viability, T/C is 21.6%.

**Q.** And the viability, T/C [7]?
**A.** Its viability, T/C is 54.2%.

**Q.** And the viability, T/C [8]?
**A.** The viability, T/C was 54.7%.

**Q.** And the viability, T/C [9]?
**A.** The viability, T/C was 57.3%.

**Q.** And the viability, T/C [10]?
**A.** Its viability, T/C is 67.6%.

**Q.** And the viability, T/C [11]?
**A.** Its viability, T/C is 28.2%.

**Q.** And the viability, T/C [12]?
**A.** Its viability, T/C is 37.7%.

**Q.** What about the viability, T/C [13] of the same compound?
**A.** The viability, T/C was 52.9%.

**Q.** What about the viability, T/C [14] of the same compound?
**A.** Its viability, T/C is 64.6%.

**Q.** What about the viability, T/C [15] of the same compound?
**A.** Its viability, T/C is 63.4%.

**Q.** And the viability, T/C [16]?
**A.** Its viability, T/C is 72.3%.

**Q.** What about the viability, T/C [17] of the same compound?
**A.** Its viability, T/C is 44%.

**Q.** And the viability, T/C [18]?
**A.** Its viability, T/C is 18.4%.

**Q.** And the viability, T/C [19]?
**A.** Its viability, T/C is 55.1%.

**Q.** And the viability, T/C [20]?
**A.** Its viability, T/C is 57.3%.

**Q.** And the viability, T/C [21]?
**A.** Its viability, T/C is 63.8%.

**Q.** And the viability, T/C [22]?
**A.** Its viability, T/C is 64.5%.

**Q.** What about the viability, T/C [23] of the same compound?
**A.** The viability, T/C was 29.6%.

**Q.** And the viability, T/C [24]?
**A.** Its viability, T/C is 15.4%.

**Q.** And the viability, T/C [25]?
**A.** Its viability, T/C is 33%.

**Q.** What about the viability, T/C [26] of the same compound?
**A.** The viability, T/C was 39.8%.

**Q.** And the viability, T/C [27]?
**A.** The viability, T/C was 36.7%.

**Q.** What about the viability, T/C [28] of the same compound?
**A.** Its viability, T/C is 36%.

**Q.** What about the viability, T/C [29] of the same compound?
**A.** The viability, T/C was 26.6%.

**Q.** What about the viability, T/C [30] of the same compound?
**A.** The viability, T/C was 6.56%.

Reference: PubChem BioAssay AID1963858 (Molecular Pharmacology Branch, DTP, NCI, 2024)
